A word on the pEC50: it is −log10 of the EC50, conventionally taken in molar units.

Our source for the EC50 values is patent publication US8343990B2, “Substituted cyclopropyl compounds, compositions containing such compounds and methods of treatment” (Merck Sharp & Dohme Corp., priority 2008, dated 2013).

The assay addresses T1, GPR119 receptor (UniProt Q8TDV5, S309L, species not given).
T1 sequence (Q8TDV5 1-335 S309L): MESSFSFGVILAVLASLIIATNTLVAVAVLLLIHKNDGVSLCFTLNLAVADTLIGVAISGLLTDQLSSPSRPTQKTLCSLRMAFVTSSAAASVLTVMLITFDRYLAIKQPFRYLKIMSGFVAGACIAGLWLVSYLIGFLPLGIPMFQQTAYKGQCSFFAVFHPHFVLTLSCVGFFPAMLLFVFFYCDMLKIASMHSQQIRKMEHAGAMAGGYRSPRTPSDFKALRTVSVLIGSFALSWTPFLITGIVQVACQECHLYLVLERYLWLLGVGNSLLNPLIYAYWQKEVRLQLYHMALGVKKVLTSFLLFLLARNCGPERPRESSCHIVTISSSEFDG
The experiment in a line: GPR119 signaling, cyclic AMP (cAMP) homogenous time resolved fluorescence (HTRF) assay. It counts as cell-based. Particulars: CHO cells with Gα15 and murine GPR119, or HEK293 Flp-In cells with human GPR119 S309L; table does not say which; read-out: Activity: inflection points, denoted as EC50 values (agonist activation of GPR119, cAMP). From the text:
Measurement of GPR119 Signaling Using a Cyclic AMP (cAMP) Homogenous Time Resolved Fluorescence (HTRF) Assay
Chinese hamster ovary (CHO) cell lines stably transfected with the permissive guanine nucleotide binding protein alpha 15 (Gα15) and […] GPR119 were maintained in DMEM media containing FBS, penicillin-streptomycin, puromycin, and G418 (geneticin). Alternatively, human embryonic kidney (HEK)293 Flp-In cells (Invitrogen, Carlsbad, Calif.) were stably transfected with a human SNP variant (S309L) of GPR119 and maintained in DMEM media containing FBS, penicillin-streptomycin, and hygromycin. Agonist activation of the GPR119 receptor was measured in receptor transfected cells described above, treated with compounds of this invention, using a commercial homogenous time resolved fluorescence (HTRF) kit for measurement of cAMP (CisBio, Bedford, Mass.). The assay was performed in 96-well half-volume plates (murine) or 384-well plates (human) following the manufacturers instructions. Briefly, suspended cells were incubated with a dose titration of test compound at room temperature for 60 min, lysed, and incubated with HTRF reagents for an additional 60 min. The plate was read using an Envision multilabel reader (Perkin Elmer) adjusted to read time resolved fluorescence and the cAMP concentrations were extrapolated from a cAMP calibration curve. […] The concentration of test compound required to stimulate a half-maximal response (EC50), and efficacy as compared to an internal agonist control, was determined from a sigmoidal 4-parameter curve fit of the resulting plot of normalized activity versus compound concentration.
A general note: In TR-FRET formats the signal depends on donor and acceptor labels being close together.

pEC50: −log10 of the molar value.

For `CS(=O)(=O)c1ccc(OCCC2CC2C2CCN(c3ncc(Cl)cn3)CC2)cc1` (racemic) [Ex 6, rac cis-5-chloro-2-[4-(2-{2-[4-(methylsulfonyl)phenoxy]ethyl}cyclopropyl)piperidin-1-yl]pyrimidine], the pEC50 is over 8.00. `CS(=O)(=O)c1ccc(OCC[C@H]2C[C@H]2C2CCN(c3ncc(Cl)cn3)CC2)nc1` (racemic) [Ex 6a, rac-cis 5-chloro-2-{-4-[2-(2-{[5-(methylsulfonyl)pyridin-2-yl]oxy}ethyl)cyclopropyl]piperidin-1-yl}pyrimidine]: the negative-log EC50 (pEC50) is over 8.00. Next, `CS(=O)(=O)c1cccc(OCCC2CC2C2CCN(c3ncc(Cl)cn3)CC2)c1` (racemic) [Ex 7, rac cis-5-chloro-2-[4-(2-{2-[3-(methylsulfonyl)phenoxy]ethyl}cyclopropyl)piperidin-1-yl]pyrimidine]: over 8.00; `Cc1nnc(-c2cccc(OCCC3CC3C3CCN(c4ncc(Cl)cn4)CC3)c2)o1` (racemic) [Ex 8, rac cis-5-chloro-2-[4-(2-{2-[3-(5-methyl-1,3,4-oxadiazol-2-yl)phenoxy]ethyl}cyclopropyl)piperidin-1-yl]pyrimidine]: under 6.70; `Clc1cnc(N2CCC(C3CC3CCOc3cccc(-n4cncn4)c3)CC2)nc1` (racemic) [Ex 9, rac cis-5-chloro-2-[4-(2-{2-[3-(1H-1,2,4-triazol-1-yl)phenoxy]ethyl}cyclopropyl)piperidin-1-yl]pyrimidine]: 6.70 to 7.30. Regarding `Clc1cnc(N2CCC(C3CC3CCOc3cccc(-c4nnco4)c3)CC2)nc1` (racemic) [Ex 10, rac cis-5-chloro-2-[4-(2-{2-[3-(1,3,4-oxadiazol-2-yl)phenoxy]ethyl}cyclopropyl)piperidin-1-yl]pyrimidine], the negative logarithm of the EC50 (pEC50) was under 6.70.

Take `O=C(NC1CC1)c1ccc(OCCC2CC2C2CCN(c3ncc(Cl)cn3)CC2)cc1F` (racemic) [Ex 11, rac cis-4-(2-{2-[1-(5-chloropyrimidin-2-yl)piperidin-4-yl]cyclopropyl}ethoxy)-N-cyclopropyl-2-fluorobenzamide]: the pEC50 is over 8.00.

As to `N#Cc1ccc(OCCC2CC2C2CCN(c3ncc(Cl)cn3)CC2)cc1F` (racemic) [Ex 12, rac cis-4-(2-{2-[1-(5-chloropyrimidin-2-yl)piperidin-4-yl)cyclopropyl}ethoxy)-2-fluorobenzonitrile], the pEC50 was 7.30 to 8.00. For `O=S(=O)(c1ccc(OCCC2CC2C2CCN(c3ncc(Cl)cn3)CC2)cc1)C1CC1` (racemic) [Ex 13, rac cis-5-chloro-2-[4-(2-{2-[4-(cyclopropylsulfonyl)phenoxy]ethyl}cyclopropyl)piperidin-1-yl]pyrimidine], the pEC50 is 7.30 to 8.00. Next, `Clc1cnc(N2CCC(C3CC3CCOc3ccc(-c4nnco4)cc3)CC2)nc1` (racemic) [Ex 15, rac cis-5-chloro-2-[4-(2-{2-[4-(1,3,4-oxadiazol-2-yl)phenoxy]ethyl}cyclopropyl)piperidin-1-yl]pyrimidine]: 7.30 to 8.00; `Cc1nnc(-c2ccc(OCCC3CC3C3CCN(c4ncc(Cl)cn4)CC3)cc2)o1` (racemic) [Ex 16, rac cis-5-chloro-2-[4-(2-{2-[4-(5-methyl-1,3.4-oxadiazol-2-yl)phenoxy]ethyl}cyclopropyl)piperidin-1-yl]pyrimidine]: over 8.00; `Clc1cnc(N2CCC(C3CC3CCOc3ccc(-c4ncon4)cc3)CC2)nc1` (racemic) [Ex 17, rac cis-5-chloro-2-[4-(2-{2-[4-(1,2,4-oxadiazol-3-yl)phenoxy]ethyl}cyclopropyl)piperidin-1-yl]pyrimidine]: 6.70 to 7.30. For `Clc1cnc(N2CCC(C3CC3CCOc3ccc(-c4ncno4)cc3)CC2)nc1` (racemic) [Ex 18, rac cis-5-chloro-2-[4-(2-{2-[4-(1,2,4-oxadiazol-5-yl)phenoxy]ethy]}cyclopropyl)piperidin-1-yl]pyrimidine], the pEC50 is 6.70 to 7.30.
